Literature values in US9629875B2, “Clostridium difficile sporicidal compositions” (Microdermis Corporation, priority 2014, dated 2017).

System: Bacillus subtilis
Settings: 0.1% L-alanine in the absence of sporicidal agents, after 4 hours

Structure (SMILES): C[C@H](N)C(=O)O [L-alanine]
- colony-forming unit (CFU) relative count: 116%
